Source: PubChem BioAssay (NCI)
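Assay format: 96-well plates, 48-hour exposure. The concentration for full growth arrest is given as TGI.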

Tests used:
Experiment in all cases: NCI anticancer screen, dose series, 48 h
[1] = system: 786-0 renal
[2] = system: A549 NSCLC
[3] = system: CCRF-CEM leukemia
[4] = system: COLO 205 colon
[5] = system: DLD-1 colon
[6] = system: DMS 114 small cell lung
[7] = system: DMS 273 small cell lung
[8] = system: EKVX NSCLC
[9] = system: HCC-2998 colon
[10] = system: HCT-116 colon
[11] = system: HL-60(TB) leukemia
[12] = system: HOP-18 NSCLC
[13] = system: HOP-62 NSCLC
[14] = system: HT29 colon
[15] = system: IGROV1 ovarian
[16] = system: K-562 leukemia
[17] = system: KM12 colon
[18] = system: KM20L2 colon
[19] = system: LOX IMVI melanoma
[20] = system: LXFL 529 NSCLC
[21] = system: M14 melanoma
[22] = system: M19-MEL melanoma
[23] = system: MOLT-4 leukemia
[24] = system: NCI-H226 lung
[25] = system: NCI-H23 lung
[26] = system: NCI-H460 lung
[27] = system: NCI-H522 lung
[28] = system: OVCAR-3 ovarian
[29] = system: OVCAR-4 ovarian
[30] = system: OVCAR-8 ovarian
[31] = system: RPMI-8226 leukemia
[32] = system: RXF 393 renal
[33] = system: SF-268 CNS
[34] = system: SF-295 CNS
[35] = system: SF-539 CNS
[36] = system: SK-MEL-28 melanoma
[37] = system: SK-MEL-5 melanoma
[38] = system: SK-OV-3 ovarian
[39] = system: SN12C renal
[40] = system: SNB-19 CNS
[41] = system: SNB-75 CNS
[42] = system: SNB-78 CNS
[43] = system: SW-620 colon
[44] = system: TK-10 renal
[45] = system: U251 CNS
[46] = system: UACC-62 melanoma
[47] = system: XF 498 CNS

Measured: TGI

COCN1C(=O)C2CC(/C=C/C(N)=O)=CN2C(=O)c2ccccc21 (configuration not stated)
> 100 µM: all assays above
